Data: PubChem BioAssay AID179 (DTP/NCI, 2004)
Active and inactive are the calls of the source.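 The calls were made as follows: active = compounds giving half or more protection of infected cells from virus-caused growth loss, again on retest; inactive = the rest.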 Where a SMILES comes first, the peptide text is derived from it. The star is where a group is joined. Fmoc = O=C(OCC1c2ccccc2-c2ccccc21)*; Boc = CC(C)(C)OC(=O)*

System: CEM cells HIV-1 protection, formazan growth assay
Assay: NCI AIDS Antiviral Assay
Conditions: for IC50: measured here: growth of uninfected CEM cells
Outline: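 Human CEM cells, uninfected and HIV-1-infected, exposed to five drug concentrations; growth measured by soluble formazan assay and scored as percent protection from infection, with protecting compounds retested.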

SMILES | EC50 [µM] | IC50 [µM] | outcome
CC(OC1CC(=O)CC2C(=O)C=CC(=O)C12)c1ccccc1 (centres undefined) | > 603 | 3.31 | 
N#Cc1cccc(C=NC23CC4CC(CC(C4)C2)C3)c1 | > 97.7 | 74.1 | 
O=C(N[C@@H](CSSC[C@H](NC(=O)OCc1ccccc1)C(=O)O)C(=O)O)OCc1ccccc1 | > 200 | 74.1 | 
CCOC(=O)C1(C)CCc2sc(N)c(C#N)c21 (centres undefined) | 83.2 | 158 | 
COc1cc2c(cc1OC)-c1cc3cc(OC)c(OC)cc3c(=O)n1CC2 | > 200 | 7.24 | 
C[N+](C)(C)C1C=CCC2=C1S(=O)(=O)C2 (centres undefined) | > 741 | 355 | 
CC1CC[C@H]2[C@@H]1[C@H]1[C@@H](CC[C@@]23CCc2ccccc2O3)C1(C)C (some centres undefined) | > 11.5 | > 11.5 | 
CC[C@@H](C(=O)[C@@H](C)[C@@H](O)[C@H](C)CCc1ccc(C)c(O)c1C(=O)O)[C@H]1O[C@](CC)([C@H]2CC[C@](O)(CC)[C@H](C)O2)C[C@@H]1C | 1.51 | 1.82 | 
S=C(NCCc1ccccn1)c1nc[nH]c1C(=S)NCCc1ccccn1 | > 200 | 19.1 | 
Cc1ccccc1N=NC(C(=O)c1ccccc1)C(=O)c1ccccc1 | > 20.9 | 14.8 | 
Nc1ncnc2c1S(=O)(=O)NCN2 | > 178 | > 178 | 
[Cl][Sn]([c]1ccccc1)([c]1ccccc1)[c]1ccccc1 |  |  | inactive
CCOC(=O)C(C)NC(=O)C(C)NC(=O)C(C)NC(=O)C(C)NC(=O)C(C)NC(=O)OCc1ccccc1 (centres undefined) | > 200 | > 200 | 
CCOC1(OCC)CS(=O)(=O)C1c1ccc([N+](=O)[O-])cc1 (centres undefined) | > 200 | > 200 | 
O=[N+]([O-])c1ncn(S(=O)(=O)c2cccc3cccnc23)n1 | > 200 | > 200 | 
N/C(=N\N=C\c1ccc2c(c1)OCO2)N/N=C\c1ccc2c(c1)OCO2 | > 200 |  | 
COc1ccccc1N1C(=O)C2c3[nH]c4ccccc4c3C3CCC(C(C)(C)C)CC3C2C1=O (centres undefined) | > 1.2 | > 1.2 | 
O=C1CC2(CCC(O)(c3ccc(Cl)cc3)C(C(=O)c3ccc(Cl)cc3)C2)C(=O)c2ccccc2N1 (centres undefined) | > 200 | 67.6 | 
N=c1oc2c(O)c(O)ccc2cc1C(N)=O | > 8.32 | > 8.32 | 
N#CC(NNC(=O)Cc1ccccc1)c1ccc([N+](=O)[O-])cc1 (centres undefined) | > 115 | > 115 | 
CS(=O)(=O)Nc1ccc2ccccc2c1 | > 200 | 158 | 
CN1C(=O)/C(=C2\SC(=O)N(CN3CCCCC3)C2=O)c2cc(Br)ccc21 | > 200 | 91.2 | 

SMILES | EC50 [µM] | IC50 [µM] | outcome
COc1ccc(C2=C(N)c3ncccc3C2=O)cc1 | > 200 | 132 | 
O=c1c2ccccc2[nH]c(=S)n1-c1ccc(Cl)cc1 | > 200 | > 200 | 
OCC1CCCCN1Cc1nc2ccc(Cl)cc2[nH]1 (centres undefined) | > 200 | 195 | 
O=c1oc2c3ccc4ccccc4c3n(CCN3CCCCC3)c2c2ccccc12 | > 8.71 | 6.76 | 
Cc1cccc(C(O)c2ccncc2)c1O (centres undefined) | > 200 | 191 | 
C=C(C)C(C(=O)OC(c1ccccc1)c1ccccc1)N1C(=O)C(NC(=O)COc2ccccc2)C1SSc1nc2ccccc2s1 (centres undefined) | > 200 | 8.32 | 
Cc1ccc(C)c(C2=C/C(=C/c3ccc(N(CCC#N)CCC#N)cc3)C(=O)O2)c1 | > 9.55 | > 9.55 | 
CN(C)c1ccc(/C=C(\NC(=O)c2ccccc2)C(=O)NC(Cc2c[nH]c3ccccc23)C(=O)O)cc1 (centres undefined) | > 100 | > 100 | 
CC(CNN=C(N)N)NN=C(N)N (centres undefined) | > 200 | > 200 | 
O=C1CCC(=O)N1C(c1ccccc1)(c1ccccc1)N1C(=O)CCC1=O | > 200 | 15.1 | 
N=C(N)c1ccc(N=Nc2cc(N=Nc3ccc(C(=N)N)cc3)c(O)cc2O)cc1 | 85.1 | > 100 | 
COc1cc(C(=O)/C=C/c2ccc(OCCSCCCCCCCCCCSCCOc3ccc(/C=C/C(=O)c4cc(OC)c(OC)c(OC)c4)cc3)cc2)cc(OC)c1OC | > 151 | > 151 | 
O=C1OC(c2ccccc2)=N/C1=C/c1ccc2c(c1)OCO2 | > 24.5 | > 24.5 | 
COc1ccc(/C(C#N)=C\c2ccc(N(C)C)cc2)cc1 | > 100 | 1.23 | 
CCOC(=O)C(=Cc1ccc(Oc2ccccc2)cc1)C(=O)OCC | > 11.2 | > 11.2 | 
C=C(C)[C@@]1(O)CCC[C@H]1NC(=O)OC(C)(C)C | > 200 | > 200 | 
COc1ccc(N=C(Nc2ccc(OC)cc2)C(=Nc2ccc(OC)cc2)Nc2ccc(OC)cc2)cc1 | > 200 | 28.2 | 
CN1CC(C(=O)NC2(C)OC3(O)C4CCCN4C(=O)C(Cc4ccccc4)N3C2=O)C=C2c3cccc4[nH]cc(c34)CC21 (centres undefined) | > 61.7 | 28.8 | 
CC[N+](C)(CC)CCC[N+]12CCC(CC1)CC2 | > 631 | > 631 | 
OCC1CC2C=CCC(C2)C1 (centres undefined) |  |  | inactive
CN(N=O)C(=O)N(N)CCCCC(NC(=O)OCc1ccccc1)C(=O)OCc1ccccc1 (centres undefined) | > 39.8 | > 39.8 | 
O=C(c1ccccc1)c1nc2ccc(Cl)cc2c2c1Cc1ccccc1-2 | > 2.95 | > 2.95 | 

SMILES | EC50 [µM] | IC50 [µM] | outcome
CC1=N/C(=C\c2ccc([N+](=O)[O-])cc2)C(=O)O1 | > 155 | > 155 | 
CCO/C=C1\N=C(c2ccccc2Br)OC1=O | > 316 | > 316 | 
C=C(C)[C@@]1(OC(=O)c2cc([N+](=O)[O-])cc([N+](=O)[O-])c2)C[C@@H]2CCCC[C@@H]21 |  |  | inactive
O=C(O)/C=C/c1ccc(Oc2ccccc2C(=O)O)o1 | > 49 | > 49 | 
CCCCCCN=Cc1c(O)c(O)c(C(C)C)c2cc(C)c(-c3c(C)cc4c(C(C)C)c(O)c(O)c(C=NCCCCCC)c4c3O)c(O)c12 | > 200 | 129 | 
NC(Cc1ccc(B(O)O)cc1)C(=O)NC(CO)CO (centres undefined) | > 200 | > 200 | 
N/C(CCSCCSCC/C(N)=N\O)=N\O | > 200 | > 200 | 
CCOC(=O)c1c(N)sc2c1CCCCC2 | > 95.5 | > 95.5 | 
C=CCOC(OCC=C)/C(Br)=C/C |  |  | inactive
Cc1nc2ccccc2c(=O)n1NC(=O)c1ccc([N+](=O)[O-])cc1 | > 200 | > 200 | 
CC(=O)CC(=O)N(CCN(C(=O)CC(C)=O)c1ccccc1)c1ccccc1 | > 178 | > 178 | 
CC(=O)OC1CC2(C)OC(Cc3ccccc32)O1 (centres undefined) | > 200 | > 200 | 
O=C(CSc1nc2[nH]ncc2c(=O)[nH]1)c1ccc(Cl)cc1 | > 200 | > 200 | 
O=C(O)Cc1cccc2c(=O)c3cccc([N+](=O)[O-])c3oc12 | > 200 | > 200 | 
COC1/C=C\OC2(C)Oc3c(C)c(O)c4c(O)c(c(/C=N\N(C)C)c(O)c4c3C2=O)NC(=O)/C(C)=C\C=C/C(C)C(O)C(C)C(O)C(C)C(OC(C)=O)C1C (centres undefined) | > 200 | 12.9 | 
CCn1c(=O)c2c3ccc(O)cc3oc2c2ccc(O)cc21 | > 200 | 89.1 | 
Cn1c(=O)c2nc(N3CCOCC3)cnc2n(C)c1=O | > 200 | > 200 | 
O=c1ccc2cc([N+](=O)[O-])ccc2o1 | > 646 | 363 | 
CC(C)(C)OC(=O)NCCCCC(NC(=O)OCC1c2ccccc2-c2ccccc21)C(=O)N1CCCC1C(=O)NCC(N)=O (stereo not drawn) (Fmoc-Lys(Boc)-Pro-Gly-NH2; configuration not given here) | 69.2 | 91.2 | 
COc1ccc(O[C@H](CO)C[C@@H]2COC(C)(C)O2)cc1 | > 200 | > 200 | 
N=c1oc2ccc([N+](=O)[O-])cc2cc1C(=O)NCc1ccccc1 | > 200 | 14.1 | 
O=Cc1cc(O)c(O)c(O)c1-c1c(C=O)cc(O)c(O)c1O | > 174 | 34.7 | 

SMILES | EC50 [µM] | IC50 [µM] | outcome
C=CP(CCP(CCP(C=C)N(CC)CC)c1ccccc1)N(CC)CC (centres undefined) | > 6.46 | > 6.46 | 
CCCCCCCCC#CCCCCCCCCCC[C@@H]1C(=O)O[C@H](C)[C@@H]1O (tested in a mixture with another compound) | > 200 | 35.5 | 
Cn1ccc(-c2cn(C)c3ccnn3c2=O)n1 | > 200 | > 200 | 
O=C(Oc1ccccc1)c1cccc(C(=O)Oc2ccccc2)c1 | > 16.2 | > 16.2 | 
CC1=NN(c2ccccc2)C(=O)C1=C1SCCS1 | > 182 | > 182 | 
CCOP(=O)(Cc1cc(C(C)(C)C)c(O)c(C(C)(C)C)c1)OCC | > 100 | > 100 | 
CN(C)CCNc1ccc([N+](=O)[O-])c2nc3ccccc3c(N)c12 | > 200 | 1.95 | 
O=C1C=CC=CC2CC=C[C@@H](O)C12 (some centres undefined) | > 251 | 12 | 
Cc1ccc2oc(=O)c(C#N)c(/C=C/c3cccc4ccccc34)c2c1 | > 200 | > 200 | 
CCCN(CCCCC(NC(C)=O)C(=O)NCc1ccccc1)C(=O)NCCCl (centres undefined) | > 589 | > 589 | 
C[C@@H]1C(=O)CC2C(C)(C)CCC[C@]2(C)[C@@]12CC[C@]1(C=COC1)O2 (some centres undefined) | > 50.1 | > 50.1 | 
COc1cc(C)cc(C(=O)OCc2ccccc2)c1C1=C(Cl)C(=O)C(Cl)=CC1=O | > 52.5 | 8.51 | 
CC(C)(C)c1ccc(OCCOc2ccc(C(C)(C)C)cc2N)c(N)c1 | > 200 | > 200 | 
COC(=O)/C=C\C(C#N)(C#N)N=Cc1ccc(Br)s1 | > 2 | 1.1 | 
C/C(=N/NC(=S)Nc1ccccc1Cl)c1cccc(/C(C)=N\NC(=S)Nc2ccccc2Cl)n1 | > 200 | 87.1 | 
C=C1C2CCC3(C4C[C@H]5C6(CCC[C@@]5(C)[C@H]5OCCN5[C@H]6O4)[C@@H]3C2)C1OC(C)=O (some centres undefined) | > 12.9 | > 12.9 | 
CC(C)(C)NC(NC(C)(C)C)=C(C(Cl)=C(Cl)Cl)[N+](=O)[O-] | > 200 | > 200 | 
O=C(Nc1ccccc1)OCc1nc2c([nH]1)C(=O)C=CC2=O |  |  | inactive
COc1cc2oc(=O)cc(C)c2c(OC)c1OC(C)=O | > 200 | > 200 | 
